This note sets out measurements from patent US9663463B2, “3-azabicyclo[3.1.0]hexane derivative and use thereof for medical purpose” (priority 2013, dated 2017).

Counter-ions that a name gives are not always drawn.

The subject of the assay is pruritus mice model to which morphine had been intracisternally administered. Kind of assay: Anti-pruritic effect in pruritus mice model to which morphine had been intracisternally administered. The format is in vivo. As to conditions: Mus musculus; oral administration, male ICR mice, inhibition of morphine-induced scratching behavior; read-out: ED50.

Turning to `CC[C@]1(c2cc(NS(=O)(=O)C3CC3)ccc2F)[C@@H]2CN(CC3(O)Cc4ccccc4C3)C[C@@H]21` [Example 2-(b), N-(3-{(1R,5S,6r)-6-ethyl-3-[(2-hydroxy-2,3-dihydro-1H-inden-2-yl)methyl]-3-azabicyclo[3.1.0]hexan-6-yl}-4-fluorophenyl)cyclopropanesulfonamide hydrochloride], the ED50 was determined as 0.83 mg/kg.

In the case of `CC[C@]1(c2cccc(NS(=O)(=O)C3CC3)c2)[C@@H]2CN(CCCC3CCC(F)(F)CC3)C[C@@H]21` [Example 4-(b), N-(3-{(1R,5S,6r)-3-[3-(4,4-difluorocyclohexyl)propyl]-6-ethyl-3-azabicyclo[3.1.0]hexan-6-yl}phenyl)cyclopropanesulfonamide hydrochloride], the ED50 was 0.5 mg/kg.

Regarding `CC[C@]1(c2cc(NS(=O)(=O)C3CC3)ccc2F)[C@@H]2CN(CCCC3CCC(F)(F)CC3)C[C@@H]21` [Example 5-(b), N-(3-{(1R,5S,6r)-3-[3-(4,4-difluorocyclohexyl)propyl]-6-ethyl-3-azabicyclo[3.1.0]hexan-6-yl}-4-fluorophenyl)cyclopropanesulfonamide hydrochloride], the median effective dose (ED50) was found to be 1.7 mg/kg.

For the molecule `CC[C@]1(c2cccc(NS(=O)(=O)C3CC3)c2)[C@@H]2CN(CCCN3CCC(F)(F)C3)C[C@@H]21` [Example 8-(b), N-(3-{(1R,5S,6r)-3-[3-(3,3-difluoropyrrolidin-1-yl)propyl]-6-ethyl-3-azabicyclo[3.1.0]hexan-6-yl}phenyl)cyclopropanesulfonamide hydrochloride], the ED50 amounted to 2 mg/kg.

On to `CC[C@]1(c2cc(F)cc(NS(=O)(=O)C3CC3)c2)[C@@H]2CN(CC3(O)Cc4ccccc4C3)C[C@@H]21` [Example 10-(b), N-(3-{(1R,5S,6r)-6-ethyl-3-[(2-hydroxy-2,3-dihydro-1H-inden-2-yl)methyl]-3-azabicyclo[3.1.0]hexan-6-yl}-5-fluorophenyl)cyclopropanesulfonamide hydrochloride], for which the ED50 is 1.8 mg/kg.

In the case of `CC[C@]1(c2cc(NS(=O)(=O)C3CC3)ccc2F)[C@@H]2CN(CCCN3CCC(F)(F)CC3)C[C@@H]21` [Example 15-(b), N-(3-{(1R,5S,6r)-3-[3-(4,4-difluoropiperidin-1-yl)propyl]-6-ethyl-3-azabicyclo[3.1.0]hexan-6-yl}-4-fluorophenyl)cyclopropanesulfonamide hydrochloride], the ED50 was 3.1 mg/kg.

`CC[C@]1(c2cccc(NS(=O)(=O)C3CC3)c2)[C@@H]2CN(CCCN3CCCC(F)(F)C3)C[C@@H]21` [Example 16-(b), N-(3-{(1R,5S,6r)-3-[3-(3,3-difluoropiperidin-1-yl)propyl]-6-ethyl-3-azabicyclo[3.1.0]hexan-6-yl}phenyl)cyclopropanesulfonamide hydrochloride]: the ED50 stood at 5.7 mg/kg.

For orientation: ED50 means the midpoint of the dose-response relation.
